Assay results published in patent US12698474B2, “B-cell cultivation method” (priority 2017, dated 2026).

System: B-cells obtained from a rabbit immunized with human serum albumin (HSA)
Assay: Co-cultivation of single deposited B-cells with EL-4 B5 feeder cells, detection of antigen-specific (anti-HSA) IgG by ELISA;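 as to HSA+ wells [% IgG+]: relative ranking scale running from o (lowest) to +++++ (highest)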;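 as to HSA+ wells [% total]: relative ranking scale running from o (lowest) to +++++ (highest)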
Format: cell-based
Method: In more detail, NZW rabbits, 12-16 weeks old, were immunized with 400 μg recombinant human serum albumin protein (HSA; CAS RN 70024-90-7; Sigma), emulsified with complete Freund's adjuvant, at day 0 by intradermal application, followed by 200 μg HSA emulsified with complete or incomplete Freund's adjuvant at weeks 1, 2, 6, 10 and 23, by alternating intramuscular and subcutaneous injections.
Generally, antibodies produced by single deposited and co-cultivated B-cells or from B-cells obtained from an immunized experimental animal can be characterized with respect to specific antigen binding. The ELISA was performed at room temperature and the ELISA-solution was incubated between the individual steps on a shaker at 20×g. In the first step the antigen was bound to the wells of a 96-well multi well plate. If the antigen was a protein it had been diluted in coating buffer and applied directly to the plate. Peptide antigens were bound via the specific binding pair biotin/streptavidin. The wells of the multi well plate can be already coated with soluble CroteinC (CrC) by the manufacturer. If not, the wells were incubated after the immobilization of the antigen with 200 μl blocking buffer. After the incubation with 100 μl antigen solution per well (pre-coated multi well plate) or 200 μl blocking buffer, respectively, non-bound antigen or blocking buffer was removed by washing with wash buffer. The diluted B-cell supernatants were added in a volume of 100 μl per well and incubated. After the incubation the wells were washed. Afterwards the detection antibody was added in a volume of 100 μl per well. The antibody can be either conjugated to horseradish peroxidase or labeled with biotin. The detection antibody was determined with a streptavidin-horseradish peroxidase conjugate. After the incubation the multi well plate was washed and afterwards 50 μl of a substrate solution containing 3,3′,5,5′ tetramethyl benzidine (TMB) were added per well and incubated for a period as given in Table X. The enzymatic reaction was stopped by the addition of 50 μl sulfuric acid and the optical density was determined at 450 nm and 680 nm with a photometer (Rainbow Thermo ELISA Reader) and the Xread plus-software.
Specifically, the assay was performed at room temperature (RT) on 384-well Maxisorp microtiter plates (Thermo Scientific) with PBS (phosphate buffered saline) buffer supplemented with 0.5% Gelatine and 0.025% Tween V-20. The plates were coated with 0.5 μg/ml of human serum albumin (HSA, Sigma-Aldrich) for at least 2 hours to overnight. After washing (3×) with PBST (PBS with 0.1% Tween®-20) buffer the wells were blocked with PBS with 0.5% Gelatine and 0.1% Tween®-20. Again, the plates were washed 3× and afterwards dilutions of B-cell supernatants were added. After an incubation of 60 min and 3 washing steps with PBST a 1:4000 dilution of a HRP-conjugated anti-rabbit IgG antibody (Amersham) was transferred to the wells and incubated for 60 min. Finally, the plates were repeatedly washed (6×) with PBST and developed with BM Blue® HRP substrate solution for 30 min. Absorbance was measured at 392-405 nm.
Single cell sorted B-cells were cultured in 96-well plates with 200 μl/well EL-4 B5 medium with Pansorbin Cells (SAC) (Calbiochem (Merck), Darmstadt, Deutschland), EL-4 B5 cells (5×10^4/well) and rabbit thymocyte supernatant (TSN) or cytokine mix (CM) with PMA, respectively, for 7 days at 37° C. in an atmosphere of 5% CO2 in the incubator. B-cell culture supernatants were removed for screening and the cells harvested immediately for variable region gene cloning or frozen at −80° C. in 100 μl RLT buffer (Qiagen, Hilden, Germany).

For `CCCCCCCCCCCCCC(=O)O[C@@H]1[C@@H](C)[C@@]2(O)[C@@H](C=C(CO)C[C@]3(O)C(=O)C(C)=C[C@@H]23)[C@@H]2C(C)(C)[C@]12OC(C)=O` [PMA, (1aR,1bS,4aR,7aS,7bS,8R,9R,9aS)-9a-(acetyloxy)-4a,7b-dihydroxy-3-(hydroxymethyl)-1,1,6,8-tetramethyl-5-oxo-1a,1b,4,4a,5,7a,7b,8,9,9a-decahydro-H-cyclopropa[3,4]benzo[1,2-e]azulen-9-yl myristate], the “HSA+ wells [% IgG+]” value (PMA 0.002 ng/ml, 0.1×CM) was “++”, the “HSA+ wells [% total]” value (PMA 0.002 ng/ml, 0.1×CM) was “+” and the “HSA+ wells [% IgG+]” value (PMA 0.011 ng/ml, 0.032×CM) was “+++++”. The “HSA+ wells [% total]” value (PMA 0.011 ng/ml, 0.032×CM) was “+++”, the “HSA+ wells [% IgG+]” value (PMA 0.011 ng/ml, 0.1×CM) was “+++++” and the “HSA+ wells [% total]” value (PMA 0.011 ng/ml, 0.1×CM) was “+++”. The “HSA+ wells [% IgG+]” value (PMA 0.054 ng/ml, 0.1×CM) was “+++”, the “HSA+ wells [% total]” value (PMA 0.054 ng/ml, 0.1×CM) was “+++” and the “Number of anti-HSA antibody positive wells [% of IgG positive wells]” value (“Number … [% of IgG positive wells]” below) (PMA 0.095 ng/ml, CM 1x) was 62.5 % of IgG positive wells. For the same compound, the “Number of anti-HSA antibody positive wells [% of total]” value (“Number … [% of total]” below) (PMA 0.095 ng/ml, CM 1x) was 23.8 % of total, the “HSA+ wells [% IgG+]” value (PMA 0.127 ng/ml, 0.032×CM) was “++” and the “HSA+ wells [% IgG+]” value (PMA 0.127 ng/ml, 0.1×CM) was “++”. For the same compound, the “HSA+ wells [% total]” value (PMA 0.127 ng/ml, 0.1×CM) was “+”, the “HSA+ wells [% IgG+]” value (PMA 0.225 ng/ml, 0.1×CM) was “++++” and the “HSA+ wells [% total]” value (PMA 0.225 ng/ml, 0.1×CM) was “+++++”. The “HSA+ wells [% IgG+]” value (PMA 0.3 ng/ml, 0.032×CM) was “+++”, the “HSA+ wells [% total]” value (PMA 0.3 ng/ml, 0.032×CM) was “++++” and the “Number … [% of IgG positive wells]” value (PMA 0.3 ng/ml, CM 0.01x) was 41.4 % of IgG positive wells. The “Number … [% of total]” value (PMA 0.3 ng/ml, CM 0.01x) was 28.6 % of total, the “Number … [% of IgG positive wells]” value (PMA 0.3 ng/ml, CM 0.032x) was 39.0 % of IgG positive wells and the “Number … [% of total]” value (PMA 0.3 ng/ml, CM 0.032x) was 27.4 % of total. For the same compound, the “Number … [% of IgG positive wells]” value (PMA 0.3 ng/ml, CM 0.1x) was 42.1 % of IgG positive wells, the “Number … [% of total]” value (PMA 0.3 ng/ml, CM 0.1x) was 28.6 % of total and the “Number … [% of IgG positive wells]” value (PMA 0.3 ng/ml, CM 0.32x) was 39.6 % of IgG positive wells. For the same compound, the “Number … [% of total]” value (PMA 0.3 ng/ml, CM 0.32x) was 22.6 % of total, the “Number … [% of IgG positive wells]” value (PMA 0.3 ng/ml, CM 1x) was 20.0 % of IgG positive wells and the “Number … [% of total]” value (PMA 0.3 ng/ml, CM 1x) was 3.6 % of total. For the same compound, the “HSA+ wells [% IgG+]” value (PMA 0.534 ng/ml, 0.032×CM) was “+++”, the “HSA+ wells [% total]” value (PMA 0.534 ng/ml, 0.032×CM) was “++” and the “HSA+ wells [% IgG+]” value (PMA 0.534 ng/ml, 0.1×CM) was “+++”. The “HSA+ wells [% total]” value (PMA 0.534 ng/ml, 0.1×CM) was “+++”, the “HSA+ wells [% IgG+]” value (PMA 0.535 ng/ml, without CM) was “+++++” and the “HSA+ wells [% total]” value (PMA 0.535 ng/ml, without CM) was “+”. For the same compound, the “HSA+ wells [% total]” value (PMA 0.712 ng/ml, 0.032×CM) was “+”, the “HSA+ wells [% IgG+]” value (PMA 0.712 ng/ml, 0.1×CM) was “++++” and the “HSA+ wells [% total]” value (PMA 0.712 ng/ml, 0.1×CM) was “+++”. The “HSA+ wells [% IgG+]” value (PMA 0.949 ng/ml, 0.032×CM) was “+++”, the “HSA+ wells [% total]” value (PMA 0.949 ng/ml, 0.032×CM) was “+++++” and the “HSA+ wells [% IgG+]” value (PMA 0.949 ng/ml, 0.1×CM) was “+”. For the same compound, the “Number … [% of IgG positive wells]” value (PMA 0.95 ng/ml, CM 0x) was 66.7 % of IgG positive wells, the “Number … [% of total]” value (PMA 0.95 ng/ml, CM 0x) was 19.0 % of total and the “Number … [% of IgG positive wells]” value (PMA 0.95 ng/ml, CM 0.01x) was 39.7 % of IgG positive wells. The “Number … [% of total]” value (PMA 0.95 ng/ml, CM 0.01x) was 27.4 % of total, the “Number … [% of IgG positive wells]” value (PMA 0.95 ng/ml, CM 0.032x) was 45.6 % of IgG positive wells and the “Number … [% of total]” value (PMA 0.95 ng/ml, CM 0.032x) was 31.0 % of total. The “Number … [% of IgG positive wells]” value (PMA 0.95 ng/ml, CM 0.1x) was 54.8 % of IgG positive wells, the “Number … [% of total]” value (PMA 0.95 ng/ml, CM 0.1x) was 27.4 % of total and the “Number … [% of IgG positive wells]” value (PMA 0.95 ng/ml, CM 0.32x) was 30.0 % of IgG positive wells. For the same compound, the “Number … [% of total]” value (PMA 0.95 ng/ml, CM 0.32x) was 7.1 % of total, the “Number … [% of IgG positive wells]” value (PMA 0.95 ng/ml, CM 1x) was 42.9 % of IgG positive wells and the “Number … [% of total]” value (PMA 0.95 ng/ml, CM 1x) was 3.6 % of total. For the same compound, the “HSA+ wells [% IgG+]” value (PMA 0.95 ng/ml, without CM) was “+++”, the “HSA+ wells [% IgG+]” value (PMA 1.266 ng/ml, 0.032×CM) was “++++” and the “HSA+ wells [% total]” value (PMA 1.266 ng/ml, 0.032×CM) was “+++++”. The “HSA+ wells [% IgG+]” value (PMA 1.688 ng/ml, 0.032×CM) was “+”, the “HSA+ wells [% total]” value (PMA 1.688 ng/ml, 0.032×CM) was “+++++” and the “HSA+ wells [% IgG+]” value (PMA 1.688 ng/ml, without CM) was “+++++”. For the same compound, the “HSA+ wells [% total]” value (PMA 1.688 ng/ml, without CM) was “+++++”, the “HSA+ wells [% total]” value (PMA 2.25 ng/ml, 0.032×CM) was “++” and the “HSA+ wells [% IgG+]” value (PMA 2.251 ng/ml, without CM) was “+++”. The “HSA+ wells [% total]” value (PMA 2.251 ng/ml, without CM) was “+++++”, the “Number … [% of IgG positive wells]” value (PMA 3 ng/ml, CM 0.01x) was 48.3 % of IgG positive wells and the “Number … [% of total]” value (PMA 3 ng/ml, CM 0.01x) was 33.3 % of total. The “Number … [% of IgG positive wells]” value (PMA 3 ng/ml, CM 0.032x) was 47.5 % of IgG positive wells, the “Number … [% of total]” value (PMA 3 ng/ml, CM 0.032x) was 34.5 % of total and the “Number … [% of IgG positive wells]” value (PMA 3 ng/ml, CM 0.1x) was 20.0 % of IgG positive wells. The “Number … [% of total]” value (PMA 3 ng/ml, CM 0.1x) was 7.1 % of total, the “Number … [% of IgG positive wells]” value (PMA 3 ng/ml, CM 0.32x) was 27.3 % of IgG positive wells and the “Number … [% of total]” value (PMA 3 ng/ml, CM 0.32x) was 3.6 % of total. The “Number … [% of IgG positive wells]” value (PMA 3 ng/ml, CM 1x) was 45.5 % of IgG positive wells, the “Number … [% of total]” value (PMA 3 ng/ml, CM 1x) was 6.0 % of total and the “HSA+ wells [% total]” value (PMA 3.999 ng/ml, without CM) was “+”. The “HSA+ wells [% IgG+]” value (PMA 5.331 ng/ml, without CM) was “++”, the “HSA+ wells [% total]” value (PMA 5.331 ng/ml, without CM) was “+++” and the “HSA+ wells [% IgG+]” value (PMA 7.106 ng/ml, without CM) was “+”. The “HSA+ wells [% total]” value (PMA 7.106 ng/ml, without CM) was “++++”.
